1 compound from US8697637B2, “Antimicrobial peptides of the cecropin family and therapeutic uses thereof” (Institut de Recherche pour le Developpement (IRD), priority 2010, dated 2014) can be followed below.

In brackets after ≈: the same amount, converted by molar mass. Where a SMILES comes first, the peptide text is derived from it.

What all share (assay type): cell-based
The subject of assay [1] is Escherichia coli (Gram negative). Conditions: E. coli, LB medium, 37° C., 24 hours, complete inhibition of growth. As to the method:
(§1) The bacteria Escherichia coli (Gram negative) and Micrococcus luteus (Gram positive) are cultivated in an LB (Luria-Bertani) culture medium with and without the peptides GK36 and MK61 to be tested. The bacterial growth is checked after incubation for one night at 37° C. by measuring the change in the absorbance value at 600 nanometres (A600) with the aid of a microplate spectrophotometer. The peptides MK61 and GK36 are incubated for 24 hours with the Gram negative and Gram positive bacteria. The minimum inhibitory concentration (MIC) of the synthetic peptides GK36 and MK61 represents the lowest peptide concentration that is sufficient to inhibit bacterial growth completely.
(§2) The results obtained are shown in FIG. 1 for the bacterium Escherichia coli (Gram negative) and in FIG. 2 for the bacterium Micrococcus luteus (Gram positive).

Assay [2] relates to Micrococcus luteus (Gram positive). Kind of assay: Antibacterial test, bacterial growth in LB medium (A600), MIC. The following applies: 37° C., 24 hours, complete inhibition of growth. The method, then: as §1, §2
The test system of assay [3] is CHIKV-147-2 GFP virus. In words: Inhibition of the infection of HEK-293T cells by chikungunya virus (GFP, flow cytometry). Conditions: MOI 1, peptide at 10, 50 and 80 μg/ml, 48 hours. The method, then: The cells, which come from the human cell line HEK-293T (human embryonic kidney 293), are incubated for 2 hours at 37° C. in the presence of CHIKV-147-2 GFP virus (they are infected at an “MOI” of 1) with and without the peptides GK36 and MK61 to be tested, which are each prepared at concentrations of 10 μg/ml, 50 μg/ml and 80 μg/ml. The supernatant is then withdrawn and the cells are or are not brought into contact with peptides for 48 hours. The percentage of cells infected corresponds to the percentage of GFP (“green fluorescent protein”) cells visualised by flow cytometry (10,000 cells were counted per condition).
For orientation: In flow cytometry, cells or beads pass a laser one at a time.

In assay [4] the test system is parasite. Kind of assay: Antiparasitic activity (general statement). The following applies: general statement in the description.
Assay [5] relates to DENV-1. Kind of assay: Inhibition of the infection of C6/36 cells by the dengue virus (RT-PCR). The following applies: C6/36 cells of Aedes albopictus, 5 or 10 μg/ml, 12 or 24 hours, RT-PCR bands. As to the method:
(§3) The C6/36 cells of Aedes albopictus mosquitoes are incubated for one hour at 4° C. with the various dengue viruses ((serotype 1) “DENV-1” or (serotype 2) “DENV-2” or (serotype 3) “DENV-3” or (serotype 4) “DENV-4”) (with “PFUs” (“plaque forming units”) of 1). The cells are then washed three times and incubated for 12 hours or 24 hours at 28° C. in the presence or absence of the peptides GK36 and MK61 to be tested, which are each prepared at concentrations of 5 μg/ml or 10 μg/ml.
(§4) RT-PCR analyses are then carried out on the cell pellets in order to detect the presence of the dengue virus.

Assay [6] relates to DENV-4. The assay is described as above. The following applies: C6/36 cells of Aedes albopictus, 5 or 10 μg/ml, 12 or 24 hours, RT-PCR bands. The method, then:
as §3, §4

The subject of assay [7] is DENV-2. Described as above. Conditions: C6/36 cells of Aedes albopictus, 5 or 10 μg/ml, 12 or 24 hours, RT-PCR bands. The method, then:
as §3, §4

Assay [8] deals with DENV-3. The description is as above. Conditions: C6/36 cells of Aedes albopictus, 5 or 10 μg/ml, 12 or 24 hours, RT-PCR bands. The method, then:
as §3, §4

Assay [9] concerns dengue virus serotype 2 "DENV-2". In words: Inhibition of the infection of dendritic cells by the dengue virus (real-time PCR). The following applies: peptide at 2.5 μg/ml, DENV-2 MOI 0.4, 48 hours. As to the method:
The dendritic cells are incubated for 3 hours at 37° C. in the presence of the dengue virus (they are infected at an “MOI” (“multiplicity of infection”) of 0.4) with and without the peptides MK61 and GK36 to be tested, which are prepared at concentrations of 2.5 μg/ml and 12 μg/ml for MK61 and 2.5 μg/ml for GK36. The supernatant is then withdrawn and the cells are or are not brought into contact with peptide for 48 hours.
Real-time PCR analyses are then carried out. The cell viability is evaluated by flow cytometry, and no cell toxicity is observed.
On the technique in general: Quantitative PCR measures a nucleic acid by following its amplification.

With `CC[C@H](C)[C@H](NC(=O)CNC(=O)[C@@H](NC(=O)[C@@H](NC(=O)[C@@H](NC(=O)[C@@H]1CCCN1C(=O)[C@H](CC(C)C)NC(=O)[C@H](C)NC(=O)[C@H](CCCCN)NC(=O)[C@H](CCC(=O)O)NC(=O)[C@H](CO)NC(=O)[C@H](C)NC(=O)[C@H](CCCCN)NC(=O)[C@H](Cc1ccccc1)NC(=O)[C@@H](NC(=O)[C@H](CCCNC(=N)N)NC(=O)[C@H](CCCCN)NC(=O)CNC(=O)[C@H](C)NC(=O)CNC(=O)[C@H](CCC(=O)O)NC(=O)[C@H](CC(C)C)NC(=O)[C@H](CCCCN)NC(=O)[C@H](CCCCN)NC(=O)CNC(=O)[C@H](CC(C)C)NC(=O)[C@H](CCCCN)NC(=O)[C@H](CCCCN)NC(=O)[C@H](CC(C)C)NC(=O)CNC(=O)CN)C(C)C)C(C)C)C(C)C)C(C)C)C(=O)N[C@@H](CCCCN)C(=O)N[C@@H](C)C(=O)N[C@H](C(=O)NCC(=O)N[C@@H](CCCCN)C(=O)O)[C@@H](C)CC` [GK36] (H-GGLKKLGKKLEGAGKRVFKASEKALPVVVGIKAIGK-OH; N-terminus and C-terminus assumed), the results for the “minimum inhibitory concentration (MIC)” value in [1] and in [2] were 0.6 µM (≈ 2.21 µg/mL) and 10 µM (≈ 36.8 µg/mL), respectively. Moreover, in [3], the “inhibition of the infection of HEK-293T cells” value was “inhibits the infection of the HEK-293T cells”. Besides, the antiparasitic activity result in assay [4] is reported as “does not exhibit antiparasitic activity”. Moreover, the “inhibition of the infection of C6/36 cells by dengue-1 virus” value in assay [5] was “inhibit the infection”. The “inhibition of the infection of C6/36 cells by dengue-4 virus” value in assay [6] is given as “inhibit the infection”. In addition, the “inhibition of the infection of C6/36 cells by dengue-2 virus” value in assay [7] is reported as “inhibit the infection”. Further, the “inhibition of the infection of C6/36 cells by dengue-3 virus” value in [8] is on record as “inhibit the infection”. In addition, in [9], the “inhibition of the infection of the dendritic cells” value is recorded as 35%.
